test system: sub-genomic HCV RNA replicon; assay: HCV replicon inhibition assay, luciferase reporter in Huh7 ET cells; assay type: cell-based; details: concentration reducing viral replication by 50%, 72 h
Experimental: To support our in vitro data, the inhibition of HCV RNA replication was then measured using human hepatocarcinoma Huh7 ET cells. These cells express a sub-genomic HCV RNA replicon with a stable luciferase reporter. The replicon contains the 5′-end Internal Ribosome Entry Site (IRES) of HCV which drives the production of a firefly luciferase, ubiquitin, and neomycin phosphotransferase (Neo) fusion protein. Ubiquitin cleavage releases the luciferase and Neo proteins. The IRES element encephalomyocarditis virus controls the translation of the HCV […] proteins NS3-NS5 in the replicon. The NS3 protein cleaves the synthesized HCV polyprotein to release the mature NS3, NS4A, NS4B, NS5A and NS5B proteins that are required for HCV replication. The authentic 3′-end non-translating region of HCV is localized at the 3′-end of the replicon. As a result, the activity of the luciferase reporter is directly proportional to HCV RNA levels and positive control antiviral compounds behave comparably using either luciferase or RNA endpoints.
Human interferon α2b was used as a control.

Structure (SMILES) | IC50
Oc1ccccc1-c1nnc2sc3c(Cl)c4nn5c(-c6ccccc6O)nnc5sc4c(Cl)c3nn12 [Compound 4] | 28 µM
Clc1ccc(Nc2nc(SCc3ccccc3)nc3n[nH]c(Cc4nc5ccccc5s4)c23)cc1 [Compound 5] | > 100 µM
COc1cc(C2C(C(=O)Nc3ccc(Cl)c(Cl)c3)=C(C)NC(C)=C2C(=O)Nc2ccc(Cl)c(Cl)c2)ccc1O [Compound 8] | 13.6 µM
Cc1n[nH]c(=S)n1Nc1nc(SCc2ccccc2)nc2n[nH]c(Cc3nn[nH]n3)c12 [Compound 3] | > 100 µM
Clc1ccc(OCc2nn3c(CCc4nnc5sc(COc6ccc(Cl)cc6)nn45)nnc3s2)cc1 [Compound 2] | 10 µM
S=c1[nH]nc(Nc2nc(SCc3ccccc3)nc3n[nH]c(Cc4nn[nH]n4)c23)s1 [Compound 6] | > 100 µM
S=c1[nH]n2c(COc3cc(Cl)c(OCc4nnc5sc(=S)[nH]n45)cc3Cl)nnc2s1 [Compound 7] | 9.95 µM
O=C(Nc1ccccc1)c1cc(S(=O)(=O)Nc2nc3ncccc3[nH]2)c(SSc2cc(Cl)c(C(=O)Nc3ccccc3)cc2S(=O)(=O)Nc2nc3ncccc3[nH]2)cc1Cl [Compound 1] | > 100 µM

same assay, conditions: concentration reducing viral replication by 90%, 72 h

Structure (SMILES) | IC90
Oc1ccccc1-c1nnc2sc3c(Cl)c4nn5c(-c6ccccc6O)nnc5sc4c(Cl)c3nn12 [Compound 4] | 99.4 µM
Clc1ccc(Nc2nc(SCc3ccccc3)nc3n[nH]c(Cc4nc5ccccc5s4)c23)cc1 [Compound 5] | > 100 µM
COc1cc(C2C(C(=O)Nc3ccc(Cl)c(Cl)c3)=C(C)NC(C)=C2C(=O)Nc2ccc(Cl)c(Cl)c2)ccc1O [Compound 8] | 19.2 µM
Cc1n[nH]c(=S)n1Nc1nc(SCc2ccccc2)nc2n[nH]c(Cc3nn[nH]n3)c12 [Compound 3] | > 100 µM
Clc1ccc(OCc2nn3c(CCc4nnc5sc(COc6ccc(Cl)cc6)nn45)nnc3s2)cc1 [Compound 2] | 25.2 µM
S=c1[nH]nc(Nc2nc(SCc3ccccc3)nc3n[nH]c(Cc4nn[nH]n4)c23)s1 [Compound 6] | > 100 µM
S=c1[nH]n2c(COc3cc(Cl)c(OCc4nnc5sc(=S)[nH]n45)cc3Cl)nnc2s1 [Compound 7] | 54.4 µM
O=C(Nc1ccccc1)c1cc(S(=O)(=O)Nc2nc3ncccc3[nH]2)c(SSc2cc(Cl)c(C(=O)Nc3ccccc3)cc2S(=O)(=O)Nc2nc3ncccc3[nH]2)cc1Cl [Compound 1] | > 100 µM

test system: NS3/4A V170A; assay: NS3/4A activity assay, V170A mutant; assay type: biochemical, HCV genotype 1b, strain HC-J4; details: fold change in IC50 for the mutant compared to WT
Text: Reagents were purchased from Sigma unless indicated otherwise. The FRET substrate Ac-DE-D(Edans)-EE-Abu-ψ-[COO]-AS-K(Dabsyl)-NH2, purified recombinant wild-type NS3/4A from HCV genotype 1b, strain HC-J4, and the mutants with the V36M, R155K, A156T, D168A and V170A resistance mutations were from AnaSpec (Fremont, CA). The NS3/4A construct represented the individual NS3 proteinase domain N-terminally fused with an NS4A co-factor and tagged with a 6xHis tag. […] Pyroglutamic acid-Arg-Thr-Lys-Arg-7-amino-4-methylcoumarin was from Peptides International (Louisville, KY). West Nile virus NS2B-NS3 proteinase (strain NY99) was expressed, purified and refolded to restore its functional activity as described earlier. The pET15b-Den2-CF40-Gly-NS3pro 185 plasmid encoding the Dengue virus type 2 NS2B-NS3 protease was a kind gift of Dr. Subhash Vasudevan (Program in Emerging Infectious Diseases, DUKE-NUS Graduate Medical School, Singapore). DV NS2B-NS3 proteinase was expressed purified and refolded to restore its functional activity as described previously, [70]. The expression of the soluble C-terminally truncated human furin construct in Sf9 insect cells (an ovarian cell line from fall armyworm Spodoptera frugiperda; Invitrogen, Carlsbad, CA) infected with the recombinant baculovirus and purification of soluble furin from the medium were described earlier. Original human hepatocarcinoma Huh7 cells were obtained from ATCC (Manassas, VA).
The NS3/4A activity assay was performed at 37°C in triplicate in wells of a 96-well plate in 0.2 ml 50 mM HEPES, pH 7.5, containing 100 mM NaCl, 10 mM DTT, 20% glycerol, the Ac-DE-D(Edans)-EE-Abu-ψ-[COO]-AS-K(Dabsyl)-NH2 substrate (10 µM) and the NS3/4A enzyme (10 nM). Reaction velocity was monitored continuously at λex = 355 nm and λem = 500 nm for 10 min using a Spectramax Gemini EM fluorescence spectrophotometer (Molecular Devices, Sunnyvale, CA) and the initial rate of reaction v was recorded for each reaction. […] Compound stock solutions (10 mM) were made in 100% DMSO. Stocks were then diluted using the assay buffer. As a result, the final DMSO concentration was always below 1% in the assay reactions.
(§1) To measure the inhibitory potency of the compounds, their increasing concentrations were pre-incubated with the individual proteinases in the corresponding buffer for 30 min at ambient temperature. At least, 7–9 different concentrations were used for each inhibitor. The residual activity of the enzymes was then measured as above. The IC50 values of the inhibitory compounds were calculated by determining the concentrations of the compounds needed to inhibit 50% of the enzyme activity against the peptide substrate. GraphPad Prism was used as fitting software.

Structure (SMILES) | NS3/4A V170A FC
Oc1ccccc1-c1nnc2sc3c(Cl)c4nn5c(-c6ccccc6O)nnc5sc4c(Cl)c3nn12 [Compound 4] | 2.2
Clc1ccc(Nc2nc(SCc3ccccc3)nc3n[nH]c(Cc4nc5ccccc5s4)c23)cc1 [Compound 5] | 16.6
COc1cc(C2C(C(=O)Nc3ccc(Cl)c(Cl)c3)=C(C)NC(C)=C2C(=O)Nc2ccc(Cl)c(Cl)c2)ccc1O [Compound 8] | 1.5
Cc1n[nH]c(=S)n1Nc1nc(SCc2ccccc2)nc2n[nH]c(Cc3nn[nH]n3)c12 [Compound 3] | 5.5
Clc1ccc(OCc2nn3c(CCc4nnc5sc(COc6ccc(Cl)cc6)nn45)nnc3s2)cc1 [Compound 2] | 6
S=c1[nH]nc(Nc2nc(SCc3ccccc3)nc3n[nH]c(Cc4nn[nH]n4)c23)s1 [Compound 6] | 0.98
S=c1[nH]n2c(COc3cc(Cl)c(OCc4nnc5sc(=S)[nH]n45)cc3Cl)nnc2s1 [Compound 7] | 1.2
O=C(Nc1ccccc1)c1cc(S(=O)(=O)Nc2nc3ncccc3[nH]2)c(SSc2cc(Cl)c(C(=O)Nc3ccccc3)cc2S(=O)(=O)Nc2nc3ncccc3[nH]2)cc1Cl [Compound 1] | 2.2

same assay, conditions: recombinant V170A mutant, FRET peptide substrate

Structure (SMILES) | IC50
Oc1ccccc1-c1nnc2sc3c(Cl)c4nn5c(-c6ccccc6O)nnc5sc4c(Cl)c3nn12 [Compound 4] | 0.8 µM
Clc1ccc(Nc2nc(SCc3ccccc3)nc3n[nH]c(Cc4nc5ccccc5s4)c23)cc1 [Compound 5] | 6.29 µM
COc1cc(C2C(C(=O)Nc3ccc(Cl)c(Cl)c3)=C(C)NC(C)=C2C(=O)Nc2ccc(Cl)c(Cl)c2)ccc1O [Compound 8] | 2.92 µM
Cc1n[nH]c(=S)n1Nc1nc(SCc2ccccc2)nc2n[nH]c(Cc3nn[nH]n3)c12 [Compound 3] | 1.97 µM
Clc1ccc(OCc2nn3c(CCc4nnc5sc(COc6ccc(Cl)cc6)nn45)nnc3s2)cc1 [Compound 2] | 1.8 µM
S=c1[nH]nc(Nc2nc(SCc3ccccc3)nc3n[nH]c(Cc4nn[nH]n4)c23)s1 [Compound 6] | 0.93 µM
S=c1[nH]n2c(COc3cc(Cl)c(OCc4nnc5sc(=S)[nH]n45)cc3Cl)nnc2s1 [Compound 7] | 1.52 µM
O=C(Nc1ccccc1)c1cc(S(=O)(=O)Nc2nc3ncccc3[nH]2)c(SSc2cc(Cl)c(C(=O)Nc3ccccc3)cc2S(=O)(=O)Nc2nc3ncccc3[nH]2)cc1Cl [Compound 1] | 0.4 µM

molecular target: T1, DV2 NS2B-NS3 proteinase (Dengue virus type 2, UniProt P29990); assay: DV2 NS2B-NS3 proteinase activity assay (cross-reactivity); assay type: biochemical; details: pyroglutamic acid-Arg-Thr-Lys-Arg-7-amino-4-methylcoumarin substrate
T1 construct: The pET15b-Den2-CF40-Gly-NS3pro 185 plasmid encoding the Dengue virus type 2 NS2B-NS3 protease; made in house
T1 sequence (P29990 1476-1653): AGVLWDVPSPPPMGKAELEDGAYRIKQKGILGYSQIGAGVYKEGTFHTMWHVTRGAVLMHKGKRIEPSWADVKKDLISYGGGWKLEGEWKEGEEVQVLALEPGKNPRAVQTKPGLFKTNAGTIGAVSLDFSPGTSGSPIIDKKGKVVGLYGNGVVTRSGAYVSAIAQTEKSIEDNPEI
Text: (§2) Reagents were purchased from Sigma unless indicated otherwise. The FRET substrate Ac-DE-D(Edans)-EE-Abu-ψ-[COO]-AS-K(Dabsyl)-NH2, purified recombinant wild-type NS3/4A from HCV genotype 1b, strain HC-J4, and the mutants with the V36M, R155K, A156T, D168A and V170A resistance mutations were from AnaSpec (Fremont, CA). The NS3/4A construct represented the individual NS3 proteinase domain N-terminally fused with an NS4A co-factor and tagged with a 6xHis tag. NS3/4A was in active form and the pre-activation by pep-4A or pep4AK was not necessary. Pyroglutamic acid-Arg-Thr-Lys-Arg-7-amino-4-methylcoumarin was from Peptides International (Louisville, KY). West Nile virus NS2B-NS3 proteinase (strain NY99) was expressed, purified and refolded to restore its functional activity as described earlier. The pET15b-Den2-CF40-Gly-NS3pro 185 plasmid encoding the Dengue virus type 2 NS2B-NS3 protease was a kind gift of Dr. Subhash Vasudevan (Program in Emerging Infectious Diseases, DUKE-NUS Graduate Medical School, Singapore). DV NS2B-NS3 proteinase was expressed purified and refolded to restore its functional activity as described previously, [70]. The expression of the soluble C-terminally truncated human furin construct in Sf9 insect cells (an ovarian cell line from fall armyworm Spodoptera frugiperda; Invitrogen, Carlsbad, CA) infected with the recombinant baculovirus and purification of soluble furin from the medium were described earlier. Original human hepatocarcinoma Huh7 cells were obtained from ATCC (Manassas, VA).
(§3) The activity of furin and both WNV and DV2 NS2B-NS3 proteinases (10 nM each) was measured in triplicate in 0.2 ml 20 mM Tris-HCl buffer, pH 8.0, containing 20% glycerol and 0.005% Brij 35 (for furin – 100 mM HEPES, pH 7.5, containing 1 mM CaCl2, 1 mM β-mercaptoethanol and 0.005% Brij 35) and pyroglutamic acid-Arg-Thr-Lys-Arg-7-amino-4-methylcoumarin (10 µM) as a substrate (λex = 360 nm; λem = 465 nm) as described earlier.
as §1

Structure (SMILES) | IC50
Oc1ccccc1-c1nnc2sc3c(Cl)c4nn5c(-c6ccccc6O)nnc5sc4c(Cl)c3nn12 [Compound 4] | 14.3 µM
Clc1ccc(Nc2nc(SCc3ccccc3)nc3n[nH]c(Cc4nc5ccccc5s4)c23)cc1 [Compound 5] | 49.4 µM
COc1cc(C2C(C(=O)Nc3ccc(Cl)c(Cl)c3)=C(C)NC(C)=C2C(=O)Nc2ccc(Cl)c(Cl)c2)ccc1O [Compound 8] | 38.8 µM
Cc1n[nH]c(=S)n1Nc1nc(SCc2ccccc2)nc2n[nH]c(Cc3nn[nH]n3)c12 [Compound 3] | 34.5 µM
Clc1ccc(OCc2nn3c(CCc4nnc5sc(COc6ccc(Cl)cc6)nn45)nnc3s2)cc1 [Compound 2] | > 100 µM
S=c1[nH]nc(Nc2nc(SCc3ccccc3)nc3n[nH]c(Cc4nn[nH]n4)c23)s1 [Compound 6] | 20.6 µM
S=c1[nH]n2c(COc3cc(Cl)c(OCc4nnc5sc(=S)[nH]n45)cc3Cl)nnc2s1 [Compound 7] | > 100 µM
O=C(Nc1ccccc1)c1cc(S(=O)(=O)Nc2nc3ncccc3[nH]2)c(SSc2cc(Cl)c(C(=O)Nc3ccccc3)cc2S(=O)(=O)Nc2nc3ncccc3[nH]2)cc1Cl [Compound 1] | 19.7 µM

molecular target: T2, furin (Homo sapiens, UniProt P09958); assay: Furin activity assay (cross-reactivity); assay type: biochemical; details: pyroglutamic acid-Arg-Thr-Lys-Arg-7-amino-4-methylcoumarin substrate
T2 construct: soluble C-terminally truncated human furin construct in Sf9 insect cells; made in house; host or cells: Sf9 insect cells (baculovirus)
T2 sequence (P09958 108-715 limits assumed): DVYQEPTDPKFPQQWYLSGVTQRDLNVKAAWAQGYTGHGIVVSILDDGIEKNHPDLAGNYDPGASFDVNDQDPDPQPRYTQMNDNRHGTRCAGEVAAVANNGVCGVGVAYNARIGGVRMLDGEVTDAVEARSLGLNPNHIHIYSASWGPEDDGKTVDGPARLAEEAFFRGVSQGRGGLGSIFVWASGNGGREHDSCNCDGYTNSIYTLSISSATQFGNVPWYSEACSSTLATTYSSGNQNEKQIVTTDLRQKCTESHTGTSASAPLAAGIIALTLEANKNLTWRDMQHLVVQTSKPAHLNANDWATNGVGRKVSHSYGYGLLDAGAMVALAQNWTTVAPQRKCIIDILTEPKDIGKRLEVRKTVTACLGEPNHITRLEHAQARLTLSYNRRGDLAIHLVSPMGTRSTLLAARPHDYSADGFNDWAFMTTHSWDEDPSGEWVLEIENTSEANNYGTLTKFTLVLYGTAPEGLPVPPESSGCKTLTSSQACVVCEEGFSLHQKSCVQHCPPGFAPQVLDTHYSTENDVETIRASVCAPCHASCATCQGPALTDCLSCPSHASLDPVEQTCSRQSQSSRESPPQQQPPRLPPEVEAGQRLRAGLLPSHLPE
Text: as §2, §3, §1

Structure (SMILES) | IC50
Oc1ccccc1-c1nnc2sc3c(Cl)c4nn5c(-c6ccccc6O)nnc5sc4c(Cl)c3nn12 [Compound 4] | 12.8 µM
Clc1ccc(Nc2nc(SCc3ccccc3)nc3n[nH]c(Cc4nc5ccccc5s4)c23)cc1 [Compound 5] | > 100 µM
COc1cc(C2C(C(=O)Nc3ccc(Cl)c(Cl)c3)=C(C)NC(C)=C2C(=O)Nc2ccc(Cl)c(Cl)c2)ccc1O [Compound 8] | 27 µM
Cc1n[nH]c(=S)n1Nc1nc(SCc2ccccc2)nc2n[nH]c(Cc3nn[nH]n3)c12 [Compound 3] | > 100 µM
Clc1ccc(OCc2nn3c(CCc4nnc5sc(COc6ccc(Cl)cc6)nn45)nnc3s2)cc1 [Compound 2] | > 100 µM
S=c1[nH]nc(Nc2nc(SCc3ccccc3)nc3n[nH]c(Cc4nn[nH]n4)c23)s1 [Compound 6] | 66.8 µM
S=c1[nH]n2c(COc3cc(Cl)c(OCc4nnc5sc(=S)[nH]n45)cc3Cl)nnc2s1 [Compound 7] | > 100 µM
O=C(Nc1ccccc1)c1cc(S(=O)(=O)Nc2nc3ncccc3[nH]2)c(SSc2cc(Cl)c(C(=O)Nc3ccccc3)cc2S(=O)(=O)Nc2nc3ncccc3[nH]2)cc1Cl [Compound 1] | > 100 µM

— PMC3388044, “Probing of Exosites Leads to Novel Inhibitor Scaffolds of HCV NS3/4A Proteinase” (PLoS ONE, 2012)
